Measurements as given in PMC12186843, “Targeting GABAergic Hypofunction Associated with Schizophrenia: Identification of α1β2γ2GABA‑A Receptor Ligands with Neuroprotective and Antipsychotic Properties” (ACS Chemical Neuroscience, 2025).

Experiments:
[1] = PAMPA permeability assay; type: in vitro ADME; conditions: pH 7.4, PAMPA, PBS pH 7.4, 100 μM, zolpidem tested as tartrate, read-out: Permeability Pe ± SD
Protocol: PAMPA. The precoated PAMPA Plate System Gentest, obtained from Corning (Tewksbury, MA, USA), was used for the permeability study. The system includes a 96-well receiver filter plate precoated with structured phospholipid layers and a matching donor microplate. Stock solutions of the test compounds and reference drugs were prepared in PBS buffer (pH 7.4) at a final concentration of 100 μM. Each compound solution (200 μL) was added to the donor wells and incubated at room temperature for 5 h. The quantity of molecules that penetrated from the donor wells to the acceptor wells through the phospholipid membrane was determined using UPLC-MS spectrometry (Waters ACQUITY TQD system with the TQ Detector, Waters, Milford, USA) with an internal standard. Permeability coefficients (Pe, cm/s) were calculated according to the formula provided by the manufacturer.

[2] = test system: SH-SY5Y cells; experiment: Intracellular calcium concentration after 6-OHDA (Fluo-4); type: cell-based, human; conditions: 50 μM pretreatment 1 h, then 6-OHDA 250 μM 1 h
Protocol: 7 (A). Effect of 6-Hydroxydopamine (6-OHDA) on intracellular calcium concentration [Ca^2+] determined by Fluo-4 AM. After pretreatment with tested compounds (50 μM) or vehicle (0.5% DMSO, v/v) for 1 h, the cells were incubated with 6-Hydroxydopamine (6-OHDA, 250 μM) for 1 h. 6-OHDA control: cells treated with 250 μM of 6-OHDA. […]. DMSO control: cells treated with 0.5% DMSO only. Data are presented as the mean ± SD from 2–3 independent experiments. Experiments were carried on with ImageXpress Micro XLS (Molecular Devices). (B) The level of ROS generation was determined by Cell ROX dye. After pretreatment with tested compounds (50 μM) or vehicle (0.5% DMSO, v/v) for 1 h, the cells were incubated with hydrogen peroxide (H2O2, 300 μM) for 1 h. H2O2 control: cells treated with H2O2 (300 μM). DMSO control: cells treated with 0.5% DMSO only. Data are presented as the mean ± SD from 2–3 independent experiments. Experiments were carried on with the ImageXpress Micro XLS (Molecular Devices).
The SH-SY5Y human neuroblastoma cell line was maintained according to established protocols. The cells, obtained from the American Type Culture Collection (ATCC), were cultured in Dulbecco’s Modified Eagle’s Medium (DMEM, high glucose; Thermo Fisher), supplemented with 10% fetal bovine serum (Thermo Fisher), 100 IU/ml penicillin (Merck), and 100 μg/mL streptomycin (Merck). They were grown in 75 cm^2 flasks (Nunc) at 37 °C in a humidified atmosphere containing 5% CO2. For compound evaluation, SH-SY5Y cells were plated in 96-well plates (Falcon) at a density of 2 × 10^4 cells per well. The cells were allowed to adhere and grow for 24 h in an incubator set to 37 °C and 5% CO2 before starting the experiments. Stock solutions of both test and reference compounds were prepared at a concentration of 10^–2 M. A minimum of 1 mg of each compound was dissolved in dimethyl sulfoxide (DMSO). Serial dilutions were made in DMSO, then further diluted in PBS, mixed, and added to the cell culture medium.
The intracellular Ca^2+ levels were assessed using a homogeneous cell-based assay with the Fluo-4 Direct Calcium Assay Kit (Thermo Fisher). Following incubation with the tested compounds, the supernatant was discarded, and the cells were incubated with 1 μM Fluo-4/AM in FluoroBrite DMEM (Thermo Fisher) for 1 h at 37 °C. The results were expressed as a percentage relative to the control (DMSO). Fluorescence intensity was recorded using the ImageXpress Micro XLS system (Molecular Devices).

## Cc1ccc2nc(-c3ccc(F)cc3)c(CC(=O)N3CCCC3)n2c1.O=C(O)C(O)C(O)C(=O)O [Compound 17, 2-(4-Fluorophenyl)-6-methyl-3-(2-oxo-2-(pyrrolidin-1-yl)-ethyl)imidazo[1,2-a]pyridin-1-ium 3-carboxy-2,3-dihydroxy-propanoate]
[1]
  Papp at 5 h, 100 μM: > 4 ×10⁻⁶ cm/s
[2]
  Reduction of intracellular calcium levels: 48%
